The values below are quoted from earlier work in publication PMC6470953, “Symmetrical Modification of Minimized Dermaseptins to Extend the Spectrum of Antimicrobials with Endotoxin Neutralization Potency” (International Journal of Molecular Sciences, 2019).

Data set [1] deals with B. subtilis CMCC 63501. The note with it: cited from earlier work. The source says:
(§1) Table 2 MICs and therapeutic index of the peptides. | column: KL4A6 [9]

The subject of data set [2] is E. coli ATCC25922. Conditions: cited from earlier work.
Description: as §1

For data set [3], the system named is E. coli UB1005. The note with it: cited from earlier work.
Description: as §1

Data set [4] has as its system Gram-negative and Gram-positive bacteria. Conditions: MIC >128 μM counted as 256 μM; cited from earlier work.
Description: as §1

In data set [5] the test system is P. aeruginosa ATCC 27853. The note with it: cited from earlier work.
Description: as §1

Data set [6] concerns S. aureus ATCC 29213. Conditions: cited from earlier work.
Description: as §1

Data set [7] relates to S. epidermidis ATCC 12228. Conditions: cited from earlier work.
Description: as §1

In data set [8] the test system is S. faecalis ATCC 29212. The note with it: cited from earlier work.
Description: as §1

The subject of data set [9] is S. pullorum C79-13. Conditions: cited from earlier work.
Description: as §1

For data set [10], the system named is S. typhimurium ATCC 14028. Conditions: cited from earlier work.
Description: as §1

For data set [11], the system named is human red blood cells (hRBCs). The note with it: lowest peptide concentration that induces 5% hemolysis; cited from earlier work.
Description: as §1

Some results are limits rather than exact numbers.

By MIC is commonly meant the lowest concentration found to suppress growth. Regarding LLKAAAKAAAKLL-NH2 [KL4A6], the minimal inhibitory concentration (MIC) in data set [1] was 32 µM; in data set [2] it was 2 µM; in [3] it was 32 µM; in [5], >128 µM; in data set [6], >128 µM; in data set [7] it was 128 µM. Also, the MIC was 16 µM in data set [8], >128 µM in data set [9] and 128 µM in data set [10]. Moreover, the “GM (geometric mean of MIC values)” value in data set [4] was 59.3 µM. Also, in data set [11], the “MHC5 (minimum hemolysis concentration 5%)” value was >256 µM.
